Measurements taken from ChEMBL document CHEMBL3638705, “Imidazo-, pyrazolopyrazines and imidazotriazines and their use” (2013).

Target: Glycogen synthase kinase-3 beta (Homo sapiens, UniProt P49841)
Assay: Biochemical Assay: The ingredients required for this purpose are mixed in a black 384-well microtiter plate with transparent base (from Greiner, catalog number 781092). The requirements in this connection for each well of the 384-well microtiter plate are 5 nM GSK3β (from Upstate, catalog number xy), 40 μM GSK3β substrate GSM (sequence H-RRRPASVPPSPSLSRHS-(pS)-HQRR, from Upstate, catalog number 2-533), 30 μM nicotinamide adenine dinucleotide NADH (Roche Diagnostics, catalog number 10107735), 50 μM adenosine triphosphate ATP (from Sigma, catalog number A7966) and 2 mM phosphoenolpyruvate (from Roche, catalog number 128112). The required reaction buffer in which the biochemical reaction takes place consists of 50 mM Trizma hydrochloride Tris-HCl pH: 7.5 (from Sigma, catalog number T3253), 5 mM magnesium chloride MgCl2 (from Sigma, catalog number M8266), 0.2 mM DL-dithiothreitol DTT (from Sigma, catalog number D9779), 2 mM ethylenediaminetetraacetic acid EDTA (from Sigma, catalog number E6758), 0.01% Triton X-100 (from Sigma, catalog number T8787) and 0.05% bovine serum albumin BSA (from Sigma, catalog number B4287). Active substances are dissolved in dimethyl sulfoxide DMSO (from Sigma, catalog number D8418) in a concentration of 10 mM. […]

Chain of Glycogen synthase kinase-3 beta (P49841 whole entry): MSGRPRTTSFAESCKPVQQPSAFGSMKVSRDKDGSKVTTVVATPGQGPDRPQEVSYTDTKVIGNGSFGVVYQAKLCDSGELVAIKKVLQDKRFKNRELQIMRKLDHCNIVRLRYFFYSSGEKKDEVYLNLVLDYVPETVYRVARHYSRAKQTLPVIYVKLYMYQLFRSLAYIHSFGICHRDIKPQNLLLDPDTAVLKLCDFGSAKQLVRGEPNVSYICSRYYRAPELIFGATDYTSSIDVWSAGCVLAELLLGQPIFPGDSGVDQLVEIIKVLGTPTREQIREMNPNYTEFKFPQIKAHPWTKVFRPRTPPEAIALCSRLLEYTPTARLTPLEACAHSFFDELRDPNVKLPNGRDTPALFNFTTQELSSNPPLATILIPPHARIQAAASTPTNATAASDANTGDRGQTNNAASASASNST

IC50: 0.016 µM
SMILES: N#Cc1sc(NCCNc2nc(-c3ccc(Cl)cc3Cl)cn3ccnc23)nc1N
